Entries after “also recorded” stand apart in the source; their conditions may differ. Where two headings read alike, the source gives them in different places.
Key:
[1] = Oral bioavailability by urinary excretion method (Example M); assay type: in vivo; settings: oral gavage 20 or 40 mg/kg parent equivalents; 24 h urine vs i.v. parent ~10 mg/kg; rat
Method: (§1) The oral bioavailability of prodrugs of a variety of phosphonic acid FBPase inhibitors was estimated by a urinary excretion method in rat.
Prodrugs of FBPase inhibitors were dissolved in 10% ethanol/90% polyethylene glycol (mw 400) and administered by oral gavage at doses of 20 or 40 mg/kg parent compound equivalents to 6-hour fasted, Sprague Dawley rats (220-240 g). The rats were subsequently placed in metabolic cages and urine was collected for 24 hours. The quantity of parent compound excreted into urine was determined by HPLC analysis. An ODS column eluted with a gradient from potassium phosphate buffer, pH 5.5 to acetonitrile was employed for these measurements. Detection was at 310-325 nm. […] Parent compounds were typically dissolved in dimethyl sulfoxide, and administered via the tail vein in animals that were briefly anesthetized with halothane.
Results for the FBPase inhibitor prodrugs were as follows

[2] = Activation by rat liver microsomes (Example D); settings: 100 μM; 0-2.5 mg/ml microsomal protein; 37° C.; with/without NADP+
Method: Methods: The microsomal fraction was prepared from fresh, saline-perfused rat liver. Liver tissue was homogenized in three volumes (w/v) of 0.2 M KH2PO4 buffer pH 7.5, containing 2 mM MgCl2 and 1 mM EGTA. The homogenate was centrifuged at 10,000 g for 1 hour and the supernatant recovered. The supernatant fraction was then recentrifuged at 100,000 g to pellet the microsomal fraction. The pellet was resuspended in homogenization buffer and recentrifuged. This process was repeated twice to ensure complete removal of cytosolic enzyme activities. After the last centrifugation, the microsomal pellet was resuspended in homogenization buffer at a final protein concentration of about 14 mg/ml.
For 7.1, reaction mixtures (0.5 ml) consisted of 0.2 M KH2PO4 pH 7.5, 13 mM glucose-6-phosphate, 2.2 mM NADP^+, 1 unit of glucose-6-phosphate dehydrogenase, 0-2.5 mg/ml microsomal protein and 100 μM 7.1. Reactions were carried out at 37° C. Aliquots were removed from the reaction mixtures at appropriate time points, and extracted with 60% methanol.
Reactions are monitored spectrophotometrically at 340 nm. A decrease in absorbance is indicative of cofactor depletion and thus of the enzymatic oxidation of prodrug to parent compound.

normal C57 mice = settings: for araATP, nmoles/g liver: day 22, 3 hours after final dosing
Method: Death and other obvious signs of toxicity such as weight loss, tremors, ruffling fur, hunching, prostration, diarrhea, lethargy, and hyperactivity were monitored. On day 22, 3 hours following the final dosing, mice were sacrificed and livers were removed and homogenized in 3 volumes (to liver weight) of 10% perchloric acid.

[3] = Oral bioavailability from liver ara-ATP area under the curve (Example M); assay type: in vivo, rat; settings: for oral bioavailability: hepatic ara-ATP AUC, fasted rats
Method: as §1
Methods: Fasted rats were dosed orally and intravenously with 30.1 at 3 and 10 mg/kg. Liver samples were obtained, processed, and analyzed for ara-ATP content as described in Example P.
[“Adenine Arabinoside: An Antiviral Agent” (1975) D. Pavan-Langston, Editor, Raven Press Publishers, New York].

[4] = Liver ara-ATP and ara-hypoxanthine generation after intravenous administration (Example O); assay type: in vivo, rat; settings: for liver ara-ATP area under the curve relative to 10 mg/kg equivalent dose of ara-AMP: over 8 hours; for ara-hypoxanthine (araH) in plasma / blood: 30.1 10 and 3 mg/kg, ara-AMP 10 mg/kg; for dose excreted in the form of ara-hypoxanthine in urine: ara-AMP 10 mg/kg equivalent dose
Method: The temporal profile of ara-hypoxanthine and ara-ATP generation following intravenous administration of 30.1 and free ara-AMP was compared in the rat. Method: 30.1 and ara-AMP (Sigma) were administered to normal, fasted rats intravenously (in saline) via tail vein catheters. At appropriate time points following drug a administration, animals were lightly anesthetized with halothane. The peritoneal cavity was then opened and a blood sample was obtained from the abdominal vena cava and the liver freeze-clamped and excised. The blood samples were heparinized and plasma was prepared. Plasma samples (100 μL) were mixed with 4 N perchloric acid (40 μL), vortexed, and then clarified by centrifugation. […] The eluent was monitored by UV absorbance at 254 nm. Livers were immediately homogenized in 3 volumes of 10% perchloric acid (w/w), and the extracts clarified by centrifugation at 2500×g (5 minutes). The resulting supernatants were removed and neutralized with 0.3 volumes of 3M KOH/3M KHCO3. […] Renal excretion of araH following i.v. administration of 30.1 or ara-AMP was determined as described in Example Q.

[5] = Chemical stability in isotonic saline and phosphate buffer (Example A); assay type: physicochemical; settings: room temperature
Method: Methods: Aliquots of a 10 μg/mL solution of 30.1 in isotonic saline and in 100 mM potassium phosphate buffers at pH 3, 7, and 9 were sampled after 1, 2, 5, and 7 days of incubation at room temperature and analyzed by HPLC. A Beckman Ultrasphere C8 column (4.6×150 mm) was employed and eluted with a gradient from 0.1% v/v trifluoroacetic acid to 80% methanol at a flow rate of 1.0 mL/min. Detection was at 254 nm. Using these conditions, the four isomers of 30.1 were readily separated and quantified. 1.3 was incubated at 100 μM in phosphate buffer at pH 7.4 and analyzed by HPLC as described in Example I following 1 hour of incubation at room temperature.
Thus, prodrugs of the invention are stable under a broad pH range.

[6] = Tissue distribution: activation in tissue homogenates (Example T); assay type: in vitro ADME, rat; settings: 100 μM; liver cytosol without microsomes
Method: 30.1 is tested for activation in homogenates from various tissues to assess the specificity of liver activation.
Methods: Rats are anaesthetized under halothane and tissues including liver, kidney, brain, heart, stomach, spleen, muscle, lung, and testis are excised and frozen in liquid nitrogen. Tissues are then homogenized in 1 to 3 volumes of 50 mM Tris/HCl, 154 mM KCl, 1 mM EGTA pH 7.4. The homogenate is centrifuged at 10,000 rpm and 4° C. for 30 minutes and the supernatant recovered. Liver cytosol is prepared by centrifuging the liver crude extract for 1 hour at 40,000 rpm and 4° C. Reaction mixtures consist of 50 mM KH2PO4 pH 7.4, 13 mM glucose-6-phosphate, 2 mM NADP^+, 10 units of glucose-6-phosphate dehydrogenase, 100 μM 30.1 and tissue homogenate at a protein concentration of 8.5 mg/ml. Reactions are incubated at 37° C. Aliquots are taken after 0 and 1 hour of incubation, and extracted with 60% methanol. The methanolic extracts are centrifuged at 14,000 rpm, and filtered prior to analysis by HPLC. The samples are loaded onto a YMC C8 column equilibrated with 0.1% TFA and eluted with a methanol gradient to 80%. Ihe activation of 30.1 to ara-AMP is monitored at […]
Results. […] Results of this nature indicate liver specific activation of 30.1.

[7] = Stability in plasma (Example C)
Method: Methods: Compounds were incubated in plasma at 37° C., and aliqouts removed at appropriate time points over the course of 5-8 hours. The aliquots were extracted with 1.5 volumes of methanol and clarified by centrifugation. Supernatants were then evaporated to dryness and the residues reconstituted with 100 μL of isoionic saline and then analyzed by reverse phase HPLC.

[8] = Hepatic PMEA-diphosphate generation following oral administration (Example W); assay type: in vivo, rat; settings: oral gavage 30 mg/kg PMEA equiv.; 4 h; fasted rats; n = 3
Method: Four hours post administration, liver samples were obtained and processed as described in Example […] was analyzed by anion exchange HPLC as described for […] in Example O.

isolated rat hepatocytes = assay: Generation of PMEApp in isolated rat hepatocytes (Example V); assay type: cell-based; settings: Dose 250 μM; 4 h; triplicate
Method: Methods: Hepatocytes were prepared from fed rats and incubated as described in Example I. Test compounds were prepared in DMSO and-diluted to 250 μM in the cell suspensions. Reactions were performed in triplicate. After 4 hours of incubation, aliquots of the suspension were removed and processed as described in Example I. Quantitation of PMEApp was performed by anion exchange HPLC also as described in Example I.

rat embryos in culture = settings: cited from earlier work
[9] = intravenous; human patients; cited from earlier work

CC(C)Cn1c(-c2ccc(P3(=O)OCC(CO)CO3)o2)nc2ccc(Cl)cc21 (centres unmarked) [Compound 7.1, 6-Chloro-1-isobutyl-2-{5-[2′-(hydroxymethyl)-propan-1′,3′-yl]phosphono-2-furanyl}benzimidazole]
% OBAV Prodrug [1]: 10.9%
conversion to parent compound [2]: converted to parent compound in the presence, but not in the absence of, NADP^+

Nc1ncnc2c1ncn2[C@@H]1O[C@H](COP2(=O)OCCC(c3ccncc3)O2)[C@@H](O)[C@@H]1O (stereo partly drawn) [Compound 30.1, Adenine-9-beta-D-arabinofuranoside-5′-[1-(4-pyridyl)-1,3-propyl]monophosphate]
safety of administration (normal C57 mice; 22 day period, doses up to 200 mg/kg/d): safely administered
araATP, nmoles/g liver (normal C57 mice; Dose 20 mg/kg/d): 6.6 ± 1.6 nmoles/g liver
araATP, nmoles/g liver (normal C57 mice; Dose 200 mg/kg/d): 23.1 ± 9 nmoles/g liver
oral bioavailability ([3]; 3 mg/kg oral vs intravenous): 13.7%
oral bioavailability ([3]; 10 mg/kg oral vs intravenous): 17.4%
production of the metabolite araH after oral administration ([3]; oral administration): without production of the metabolite araH
liver ara-ATP area under the curve relative to 10 mg/kg equivalent dose of ara-AMP ([4]; 30.1 3 mg/kg i.v., rat): 2.1 times higher
liver ara-ATP area under the curve relative to 10 mg/kg equivalent dose of ara-AMP ([4]; 30.1 10 mg/kg i.v., rat): 5.2 times higher
liver levels of araATP relative to araAMP (FIG. 1A) ([4]; i.v., 30.1 10 and 3 mg/kg vs araAMP 10 mg/kg): Significantly higher
ara-hypoxanthine (araH) in plasma / blood ([4]; i.v., rat): not detected; also recorded: no ara-hypoxanthine; also recorded: failed to produce detectable amounts; also recorded: no araH (a toxic metabolite) was detected
dose excreted in the form of ara-hypoxanthine in urine ([4]; i.v., rat): Nor was ara-hypoxanthine detected in urine
liver (araATP)/urine (araH) ratio in comparison with araAMP ([4]; rat): substantial shift
decomposition in saline or buffer ([5]; 10 μg/mL, isotonic saline and 100 mM potassium phosphate buffers pH 3, 7, 9, 7 days, HPLC): No decomposition
period for which stable ([5]; isotonic saline / 100 mM potassium phosphate buffer pH 3, 7, 9): at least seven
activation to ara-AMP in liver cytosol [6]: does not result in activation
metabolism / degradation in fresh rat plasma ([7]; 37° C., 5-8 hours, HPLC): not degraded; also recorded: no evidence of metabolism
deamination by adenosine deaminase found in rat plasma ([7]; rat plasma): not susceptible

Nc1ncnc2c1ncn2CCOCP1(=O)OCCC(c2cccc(Cl)c2)O1 (centres unmarked) [Compound 31.1, 9-{2-[1-(3-Chlorophenyl)1,3-propylphosphonomethoxy]ethyl}adenine]
Hepatic PMEApp (nmoles/g/tissue) [8]: 11.1 ± 1.8 nmoles/g/tissue
PMEApp (isolated rat hepatocytes): 52.8 ± 1.5 nmol/g

C=CC(=O)c1ccccc1 [Phenyl vinyl ketone]
teratogenic activity (rat embryos in culture): lacks teratogenic activity

Nc1ncnc2c1ncn2[C@@H]1O[C@H](COP(=O)(O)O)[C@@H](O)[C@@H]1O [araAMP, reference compound]
araATP, nmoles/g liver (normal C57 mice; Dose 20 mg/kg/d): 2.5 ± 0.2 nmoles/g liver
araATP, nmoles/g liver (normal C57 mice; Dose 200 mg/kg/d): 19.1 ± 4.0 nmoles/g liver
ara-AMP in plasma [9]: not detected in plasma
ara-hypoxanthine (araH) in plasma / blood ([4]; i.v., rat, listed as AraAMP): rapidly and nearly completely converted to araH
ara-hypoxanthine (araH) in plasma / blood ([4]; i.v., rat, listed as ara-AMP): μmolar levels
dose excreted in the form of ara-hypoxanthine in urine ([4]; i.v., rat): 19.2%
plasma half-life relative to 30.1 ([4]; rat, compound not detectable in plasma): considerably shorter

Reference: US7351399B2, “Prodrugs for phosphorus-containing compounds” (Metabasis Therapeutics, Inc., priority 1998, dated 2008)
